From the NIST ThermoML archive (doi:10.1021/je700373r)
Numbers after ± are expanded uncertainties.

Assay: xn = mol fraction of the nth substance listed
Conditions: Fluid (supercritical or subcritical phases), Vibrating tube method

CC1=C(/C=C/C(C)=C/C=C/C(C)=C/C=C/C=C(C)/C=C/C=C(C)/C=C/C2=C(C)CCCC2(C)C)C(C)(C)CCC1 [β-carotene] + O=C=O
mass density (308.15 K, 10000 kPa, x1 = 1.5e-06): 717.5 ± 2.1 kg/m3 | mass density (308.15 K, 10000 kPa, x1 = 2.2e-06): 717.7 ± 2.1 kg/m3 | mass density (308.15 K, 10000 kPa, x1 = 2.9e-06): 717.9 ± 2.1 kg/m3 | mass density (308.15 K, 10000 kPa, x1 = 4.3e-06): 717.6 ± 2.1 kg/m3 | mass density (308.15 K, 10000 kPa, x1 = 4.8e-06): 717.8 ± 2.1 kg/m3 | mass density (308.15 K, 10000 kPa, x1 = 5.5e-06): 718.3 ± 2.1 kg/m3 | mass density (308.15 K, 10000 kPa, x1 = 6.5e-06): 717.8 ± 2.1 kg/m3 | mass density (308.15 K, 15000 kPa, x1 = 1.5e-06): 816.3 ± 1.6 kg/m3 | mass density (308.15 K, 15000 kPa, x1 = 2.2e-06): 816.4 ± 1.6 kg/m3 | mass density (308.15 K, 15000 kPa, x1 = 2.9e-06): 816.5 ± 1.6 kg/m3 | mass density (308.15 K, 15000 kPa, x1 = 4.3e-06): 816.4 ± 1.6 kg/m3 | mass density (308.15 K, 15000 kPa, x1 = 4.8e-06): 816.4 ± 1.6 kg/m3 | mass density (308.15 K, 15000 kPa, x1 = 5.5e-06): 816.7 ± 1.6 kg/m3 | mass density (308.15 K, 15000 kPa, x1 = 6.5e-06): 816.4 ± 1.6 kg/m3 | mass density (308.15 K, 20000 kPa, x1 = 1.5e-06): 866.3 ± 1 kg/m3 | mass density (308.15 K, 20000 kPa, x1 = 2.2e-06): 866.3 ± 1 kg/m3 | mass density (308.15 K, 20000 kPa, x1 = 2.9e-06): 866.3 ± 1 kg/m3 | mass density (308.15 K, 20000 kPa, x1 = 4.3e-06): 866.4 ± 1 kg/m3 | mass density (308.15 K, 20000 kPa, x1 = 4.8e-06): 866.4 ± 1 kg/m3 | mass density (308.15 K, 20000 kPa, x1 = 5.5e-06): 866.5 ± 1 kg/m3 | mass density (308.15 K, 20000 kPa, x1 = 6.5e-06): 866.4 ± 1 kg/m3 | mass density (308.15 K, 30000 kPa, x1 = 1.5e-06): 929.1 ± 0.8 kg/m3 | mass density (308.15 K, 30000 kPa, x1 = 2.2e-06): 929.1 ± 0.8 kg/m3 | mass density (308.15 K, 30000 kPa, x1 = 2.9e-06): 929.1 ± 0.8 kg/m3 | mass density (308.15 K, 30000 kPa, x1 = 4.3e-06): 929.1 ± 0.8 kg/m3 | mass density (308.15 K, 30000 kPa, x1 = 4.8e-06): 929.3 ± 0.8 kg/m3 | mass density (308.15 K, 30000 kPa, x1 = 5.5e-06): 929.2 ± 0.8 kg/m3 | mass density (308.15 K, 30000 kPa, x1 = 6.5e-06): 929.1 ± 0.8 kg/m3 | mass density (308.15 K, 40000 kPa, x1 = 1.5e-06): 971.8 ± 0.7 kg/m3 | mass density (308.15 K, 40000 kPa, x1 = 2.2e-06): 971.9 ± 0.7 kg/m3 | mass density (308.15 K, 40000 kPa, x1 = 2.9e-06): 971.9 ± 0.7 kg/m3 | mass density (308.15 K, 40000 kPa, x1 = 4.3e-06): 971.9 ± 0.7 kg/m3 | mass density (308.15 K, 40000 kPa, x1 = 4.8e-06): 972 ± 0.7 kg/m3 | mass density (308.15 K, 40000 kPa, x1 = 5.5e-06): 972 ± 0.7 kg/m3 | mass density (308.15 K, 40000 kPa, x1 = 6.5e-06): 971.9 ± 0.7 kg/m3 | mass density (313.15 K, 10000 kPa, x1 = 1.5e-06): 636.7 ± 3.2 kg/m3 | mass density (313.15 K, 10000 kPa, x1 = 2.2e-06): 637.3 ± 3.2 kg/m3 | mass density (313.15 K, 10000 kPa, x1 = 2.9e-06): 637.2 ± 3.2 kg/m3 | mass density (313.15 K, 10000 kPa, x1 = 4.3e-06): 637.2 ± 3.2 kg/m3 | mass density (313.15 K, 10000 kPa, x1 = 4.8e-06): 637.7 ± 3.2 kg/m3 | mass density (313.15 K, 10000 kPa, x1 = 5.5e-06): 637.8 ± 3.2 kg/m3 | mass density (313.15 K, 10000 kPa, x1 = 6.5e-06): 637.3 ± 3.3 kg/m3 | mass density (313.15 K, 15000 kPa, x1 = 1.5e-06): 781.5 ± 2.1 kg/m3 | mass density (313.15 K, 15000 kPa, x1 = 2.2e-06): 781.6 ± 2.1 kg/m3 | mass density (313.15 K, 15000 kPa, x1 = 2.9e-06): 781.6 ± 2.1 kg/m3 | mass density (313.15 K, 15000 kPa, x1 = 4.3e-06): 781.6 ± 2.1 kg/m3 | mass density (313.15 K, 15000 kPa, x1 = 4.8e-06): 781.8 ± 2.1 kg/m3 | mass density (313.15 K, 15000 kPa, x1 = 5.5e-06): 781.9 ± 2.1 kg/m3 | mass density (313.15 K, 15000 kPa, x1 = 6.5e-06): 781.6 ± 2.1 kg/m3 | mass density (313.15 K, 20000 kPa, x1 = 1.5e-06): 840.4 ± 1 kg/m3 | mass density (313.15 K, 20000 kPa, x1 = 2.2e-06): 840.4 ± 1 kg/m3 | mass density (313.15 K, 20000 kPa, x1 = 2.9e-06): 840.4 ± 1 kg/m3 | mass density (313.15 K, 20000 kPa, x1 = 4.3e-06): 840.4 ± 1 kg/m3 | mass density (313.15 K, 20000 kPa, x1 = 4.8e-06): 840.6 ± 1 kg/m3 | mass density (313.15 K, 20000 kPa, x1 = 5.5e-06): 840.7 ± 1 kg/m3 | mass density (313.15 K, 20000 kPa, x1 = 6.5e-06): 840.4 ± 1 kg/m3 | mass density (313.15 K, 30000 kPa, x1 = 1.5e-06): 909.9 ± 0.9 kg/m3 | mass density (313.15 K, 30000 kPa, x1 = 2.2e-06): 909.9 ± 0.9 kg/m3 | mass density (313.15 K, 30000 kPa, x1 = 2.9e-06): 909.9 ± 0.9 kg/m3 | mass density (313.15 K, 30000 kPa, x1 = 4.3e-06): 909.9 ± 0.9 kg/m3 | mass density (313.15 K, 30000 kPa, x1 = 4.8e-06): 910 ± 0.9 kg/m3 | mass density (313.15 K, 30000 kPa, x1 = 5.5e-06): 910.1 ± 0.9 kg/m3 | mass density (313.15 K, 30000 kPa, x1 = 6.5e-06): 909.9 ± 0.9 kg/m3 | mass density (313.15 K, 40000 kPa, x1 = 1.5e-06): 955.7 ± 0.8 kg/m3 | mass density (313.15 K, 40000 kPa, x1 = 2.2e-06): 955.7 ± 0.8 kg/m3 | mass density (313.15 K, 40000 kPa, x1 = 2.9e-06): 955.7 ± 0.8 kg/m3 | mass density (313.15 K, 40000 kPa, x1 = 4.3e-06): 955.7 ± 0.8 kg/m3 | mass density (313.15 K, 40000 kPa, x1 = 4.8e-06): 955.8 ± 0.8 kg/m3 | mass density (313.15 K, 40000 kPa, x1 = 5.5e-06): 955.9 ± 0.8 kg/m3 | mass density (313.15 K, 40000 kPa, x1 = 6.5e-06): 955.7 ± 0.8 kg/m3
